{"source": "ChEMBL document CHEMBL6092217", "about": "(Eur J Med Chem, 2024)", "key": {"[1]": {"system": "HT-29", "experiment": "Induction of cell cycle arrest in human HT-29 cells assessed as accumulation of cells at G1 phase at 100 nM incubated for 24 hrs by flow cytometry analysis (reference value: 67.6%)", "assay_type": "functional"}, "[2]": {"experiment": "Binding affinity to porcine brain tubulin assessed as dissociation constant measured after 20 mins by fluorescence based analysis", "design": "species or system Sus scrofa"}, "[3]": {"system": "HT-29", "experiment": "Induction of apoptosis in human HT-29 cells assessed as upregulation of cleaved PARP level at 50 to 200 nM incubated for 24 hrs by Western blot analysis", "assay_type": "functional, cell-based", "settings": "dose 50-200 nM"}, "[4]": {"biological_target": "T1, Tubulin (Homo sapiens) (UniProt P68371+Q9H4B7+P0DPH7+P68366+Q13509+Q71U36+P04350+Q3ZCM7+P07437+P68363+Q9BQE3+Q6PEY2+Q13885+Q9BVA1+Q9BUF5)", "experiment": "Disruption of microtubule network in human HT-29 cells incubated for 8 hrs by DAPI staining based confocal microscopic analysis", "assay_type": "cell-based", "settings": "dose 50-200 nM"}, "[5]": {"system": "HT-29", "experiment": "Induction of cell cycle arrest in human HT-29 cells assessed as accumulation of cells at S phase at 100 nM incubated for 24 hrs by flow cytometry analysis (reference value: 20.8 %)", "assay_type": "functional"}, "[6]": {"system": "HT-29", "experiment": "Induction of cell cycle arrest in human HT-29 cells assessed as reduction in p-CDC2 expression incubated for 24 hrs by Western blot analysis", "assay_type": "functional, cell-based", "settings": "dose 50-200 nM"}, "[7]": {"experiment": "AUC (0 to t) in Sprague-Dawley rat at 5 mg/kg, iv measured upto 24 hrs by HPLC-MS analysis", "assay_type": "ADME, organism-based", "settings": "in vivo"}, "[8]": {"system": "HT-29", "experiment": "Induction of cell cycle arrest in human HT-29 cells assessed as accumulation of cells at S phase at 200 nM incubated for 24 hrs by flow cytometry analysis (reference value: 20.8 %)", "assay_type": "functional"}, "[9]": {"system": "HT-29", "experiment": "Antitumor activity against human HT-29 cells xenografted in BALB/c mouse assessed as tumor growth inhibition at 20 mg/kg, iv measured after 21 days", "assay_type": "functional", "settings": "HT-29, 504 h, time 21 day, read-out: TGI"}, "[10]": {"system": "HT-29", "experiment": "Induction of cell cycle arrest in human HT-29 cells assessed as accumulation of cells at G1 phase at 50 nM incubated for 24 hrs by flow cytometry analysis (reference value: 67.6%)", "assay_type": "functional"}, "[11]": {"system": "A549", "experiment": "Inhibition of cell migration in human A549 cells incubated for 24 hrs by wound healing assay", "assay_type": "functional, cell-based", "settings": "dose 50-100 nM"}, "[12]": {"system": "Mitochondrial membrane", "experiment": "Induction of mitochondrial membrane potential loss in human HT-29 cells assessed as decrease in red fluorescence at 50 to 100 nM incubated for 24 hrs by JC-1 staining based confocal microscopic analysis", "assay_type": "cell membranes", "settings": "dose 50-100 nM"}, "[13]": {"experiment": "Toxicity in ICR mouse assessed as effect on granulocytes count at 10 to 40 mg/kg, iv administered every 2 days and measured after 14 days", "assay_type": "organism-based", "settings": "in vivo, 336 h, dose 10-40 mg/kg, time 14 day"}, "[14]": {"biological_target": "T1, Tubulin (Homo sapiens)", "experiment": "(§1) Inhibition of tubulin polymerization (unknown origin) in presence of GTP by fluorescence plate reader analysis", "assay_type": "protein-complex assay", "settings": "dose 0.625-10 µM"}, "[15]": {"biological_target": "Tubulin", "experiment": "as §1", "assay_type": "protein-complex assay, Homo sapiens"}, "[16]": {"experiment": "Toxicity in BALB/c mouse assessed as liver damage at 10 to 40 mg/kg, iv measured after 21 days by H and E staining based analysis", "assay_type": "organism-based", "settings": "in vivo, 504 h, dose 10-40 mg/kg, time 21 day"}, "[17]": {"system": "HUVEC", "experiment": "Inhibition of tube formation in HUVEC cells incubated for 6 hrs by inverted microscopic analysis", "assay_type": "functional, cell-based", "settings": "Homo sapiens, dose 50-100 nM"}, "[18]": {"experiment": "Toxicity in ICR mouse assessed as effect on RBC count at 10 to 40 mg/kg, iv administered every 2 days and measured after 14 days", "assay_type": "organism-based", "settings": "in vivo, 336 h, dose 10-40 mg/kg, time 14 day"}, "[19]": {"experiment": "Toxicity in ICR mouse assessed as effect on AST level at 10 to 40 mg/kg, iv administered every 2 days and measured after 14 days", "assay_type": "organism-based", "settings": "in vivo, 336 h, dose 10-40 mg/kg, time 14 day"}, "[20]": {"system": "HT-29", "experiment": "Induction of apoptosis in human HT-29 cells assessed as downregulation of Bcl-2 level at 50 to 200 nM incubated for 24 hrs by Western blot analysis", "assay_type": "functional, cell-based", "settings": "dose 50-200 nM"}, "[21]": {"system": "HT-29", "experiment": "Induction of apoptosis in human HT-29 cells assessed as early apoptotic cells at 100 nM incubated for 24 hrs by FITC/PI staining based flow cytometry analysis (reference value: 8.14%)", "assay_type": "functional"}, "[22]": {"system": "HT-29", "experiment": "Induction of apoptosis in human HT-29 cells assessed as viable cells at 200 nM incubated for 24 hrs by FITC/PI staining based flow cytometry analysis (reference value: 91.6%)", "assay_type": "functional", "settings": "read-out: Activity"}, "[23]": {"system": "HT-29", "experiment": "Antitumor activity against human HT-29 cells xenografted in BALB/c mouse assessed as tumor growth inhibition at 10 mg/kg, iv measured after 21 days", "assay_type": "functional", "settings": "HT-29, 504 h, time 21 day, read-out: TGI"}, "[24]": {"experiment": "Toxicity in BALB/c mouse assessed as kidney damage at 10 to 40 mg/kg, iv measured after 21 days by H and E staining based analysis", "assay_type": "organism-based", "settings": "in vivo, 504 h, dose 10-40 mg/kg, time 21 day"}, "[25]": {"system": "HT-29", "experiment": "Induction of cell cycle arrest in human HT-29 cells assessed as accumulation of cells at S phase at 50 nM incubated for 24 hrs by flow cytometry analysis (reference value: 20.8 %)", "assay_type": "functional"}, "[26]": {"biological_target": "T1, Tubulin (Homo sapiens)", "experiment": "Inhibition of tubulin polymerization in human HT-29 cells assessed as upregulation of DeY- alpha-tubulin expression 50 to 200 nM incubated for 24 hrs by Western blot analysis", "assay_type": "cell-based", "settings": "dose 50-200 nM"}, "[27]": {"system": "HT-29", "experiment": "Induction of cell cycle arrest in human HT-29 cells assessed as effect on CDC2 expression at 50 to 200 nM incubated for 24 hrs by Western blot analysis", "assay_type": "functional, cell-based", "settings": "dose 50-200 nM"}, "[28]": {"system": "HT-29", "experiment": "Induction of apoptosis in human HT-29 cells assessed as upregulation of Bax level at 50 to 200 nM incubated for 24 hrs by Western blot analysis", "assay_type": "functional, cell-based", "settings": "dose 50-200 nM"}, "[29]": {"experiment": "Toxicity in ICR mouse assessed as effect on lymphocytes count at 10 to 40 mg/kg, iv administered every 2 days and measured after 14 days", "assay_type": "organism-based", "settings": "in vivo, 336 h, dose 10-40 mg/kg, time 14 day"}, "[30]": {"system": "HT-29", "experiment": "Induction of apoptosis in human HT-29 cells assessed as late apoptotic cells at 50 nM incubated for 24 hrs by FITC/PI staining based flow cytometry analysis (reference value: 0.20%)", "assay_type": "functional"}, "[31]": {"system": "HT-29", "experiment": "Induction of apoptosis in human HT-29 cells assessed as necrotic cells at 200 nM incubated for 24 hrs by FITC/PI staining based flow cytometry analysis (reference value: 0.017 %)", "assay_type": "functional"}, "[32]": {"biological_target": "T1, Tubulin (Homo sapiens)", "experiment": "Binding affinity to Tubulin colchicine binding site in human HT-29 cells assessed as inhibition of EBI-beta-tubulin adduct formation at 1 to 100 uM preincubated with compound for 2 hrs followed by EBI addition measured after 1.5 hrs by EBI competition based Western blotting analysis", "assay_type": "cell-based", "settings": "dose 1-100 µM, time 3.5 hrs"}, "[33]": {"experiment": "Toxicity in ICR mouse assessed as effect on monocyte count at 10 to 40 mg/kg, iv administered every 2 days and measured after 14 days", "assay_type": "organism-based", "settings": "in vivo, 336 h, dose 10-40 mg/kg, time 14 day"}, "[34]": {"experiment": "Half life in Sprague-Dawley rat at 5 mg/kg, iv measured upto 24 hrs by HPLC-MS analysis", "assay_type": "ADME, organism-based", "settings": "in vivo"}, "[35]": {"system": "HT-29", "experiment": "Induction of apoptosis in human HT-29 cells assessed as necrotic cells at 100 nM incubated for 24 hrs by FITC/PI staining based flow cytometry analysis (reference value: 0.017 %)", "assay_type": "functional"}, "[36]": {"experiment": "Toxicity in ICR mouse assessed as effect on BUN level at 10 to 40 mg/kg, iv administered every 2 days and measured after 14 days", "assay_type": "organism-based", "settings": "in vivo, 336 h, dose 10-40 mg/kg, time 14 day"}}, "note": "Active and inactive are the calls of the source. The rule behind the calls is not given here."}
{"smiles": "COc1ccc(N(C)c2nc(/C=C/c3cccc(OC)c3)nc3ccccc23)cc1", "values": [{"measurement": "Activity", "setting": "[1]", "result": 35.6, "unit": "%"}, {"measurement": "Kd", "setting": "[2]", "result": 8.79, "unit": "µM"}, {"measurement": "Activity", "setting": "[3]", "result": "Active"}, {"measurement": "Activity", "setting": "[4]", "result": "Dose-dependent-effect"}, {"measurement": "Activity", "setting": "[5]", "result": 24.9, "unit": "%"}, {"measurement": "Activity", "setting": "[6]", "result": "Dose-dependent-effect"}, {"measurement": "AUC(0-t) at 24 h", "setting": "[7]", "result": 3820, "unit": "ng·h/mL"}, {"measurement": "Activity", "setting": "[8]", "result": 7.31, "unit": "%"}, {"measurement": "inhibition in vivo at 20 mg/kg", "setting": "[9]", "result": 64.7, "unit": "%"}, {"measurement": "Activity", "setting": "[10]", "result": 64.6, "unit": "%"}, {"measurement": "inhibition", "setting": "[11]", "result": "Dose-dependent-effect"}, {"measurement": "Activity", "setting": "[12]", "result": "Active"}, {"measurement": "Activity", "setting": "[13]", "result": "Non-toxic"}, {"measurement": "inhibition", "setting": "[14]", "result": "Dose-dependent-effect"}, {"measurement": "IC50", "setting": "[15]", "result": 3.16, "unit": "µM"}, {"measurement": "Activity", "setting": "[16]", "result": "Non-toxic"}, {"measurement": "inhibition", "setting": "[17]", "result": "Dose-dependent-effect"}, {"measurement": "Activity", "setting": "[18]", "result": "Non-toxic"}, {"measurement": "Activity", "setting": "[19]", "result": "Non-toxic"}, {"measurement": "Activity", "setting": "[20]", "result": "Active"}, {"measurement": "Activity", "setting": "[21]", "result": 2.87, "unit": "%"}, {"measurement": "viability at 0.2 µM", "setting": "[22]", "result": 43.2, "unit": "%"}, {"measurement": "inhibition in vivo at 10 mg/kg", "setting": "[23]", "result": 53, "unit": "%"}, {"measurement": "Activity", "setting": "[24]", "result": "Non-toxic"}, {"measurement": "Activity", "setting": "[25]", "result": 16.5, "unit": "%"}, {"measurement": "inhibition", "setting": "[26]", "result": "Active"}, {"measurement": "Activity", "setting": "[27]", "result": "inactive"}, {"measurement": "Activity", "setting": "[28]", "result": "Active"}, {"measurement": "Activity", "setting": "[29]", "result": "Non-toxic"}, {"measurement": "Activity", "setting": "[30]", "result": 13.6, "unit": "%"}, {"measurement": "Activity", "setting": "[31]", "result": 1.36, "unit": "%"}, {"measurement": "inhibition", "setting": "[32]", "result": "Active"}, {"measurement": "Activity", "setting": "[33]", "result": "Non-toxic"}, {"measurement": "half-life", "setting": "[34]", "result": 30.6, "unit": "min"}, {"measurement": "Activity", "setting": "[35]", "result": 2.72, "unit": "%"}, {"measurement": "Activity", "setting": "[36]", "result": "Non-toxic"}]}
